Experimental data published in patent US10301348B2, “Compounds for use in prevention and treatment of neurodegenerative diseases and pain” (Academia Sinica, priority 2013, dated 2019).
Entries after “also recorded” stand apart in the source; their conditions may differ.

Columns and labels:
[1] = test system: PC12 cells; test: Serum deprivation-induced cell death, MTT assay; format: cell-based, Rat; settings: serum-deprived PC12 cells, 24 h
Description: Serum-deprived PC12 cells were treated with or without the indicated reagent(s) for 24 h. Cell viability was expressed as a percentage of the results from MTT assays compared to the mean of a serum-containing control group. Data points represent the mean±SEM (n=3˜6).
Rat PC12 cells purchased from American Type Culture Collection (ATCC; Manassas, Va., USA) were maintained in DMEM supplemented with 10% horse serum and 5% FBS and incubated in a CO2 incubator (5%) at 37° C. LIPOFECTAMINE™ 2000 (Invitrogen) was used as a vehicle to transfer plasmids into cells according to the manufacture's protocol. Plasmids were kindly provided by Dr. Pulst (Department of Neurology, University of Utah, USA). Normally, 5 μg of DNA combined with 5 μl of LIPOFECTAMINE™ 2000 was applied to each well of 6-well plates. The plating number was (1˜1.5)×10^6 cells/well. After transfections for 6 h, cells were treated with reagents for another 24 h. Images were taken with a Zeiss Axiovert 200M inverted fluorescence microscope (Göttingen, Germany).
MTT assay. Survival was assessed by 3-(4,5-dimethylthiazol-2-yl)-2,5-diphenyl tetrazolium bromide (MTT) metabolism assay. […] After discarding the medium, DMSO was applied to the well to dissolve formazan crystals, and the absorbances at 570 and 630 nm in each well were measured on a micro-enzyme-linked immunosorbent assay (ELISA) reader.

[2] = target: human A2AR (Homo sapiens, UniProt P29274); test: A2AR radioligand binding assay (3H-CGS21680)
Chain of human A2AR (P29274 whole entry): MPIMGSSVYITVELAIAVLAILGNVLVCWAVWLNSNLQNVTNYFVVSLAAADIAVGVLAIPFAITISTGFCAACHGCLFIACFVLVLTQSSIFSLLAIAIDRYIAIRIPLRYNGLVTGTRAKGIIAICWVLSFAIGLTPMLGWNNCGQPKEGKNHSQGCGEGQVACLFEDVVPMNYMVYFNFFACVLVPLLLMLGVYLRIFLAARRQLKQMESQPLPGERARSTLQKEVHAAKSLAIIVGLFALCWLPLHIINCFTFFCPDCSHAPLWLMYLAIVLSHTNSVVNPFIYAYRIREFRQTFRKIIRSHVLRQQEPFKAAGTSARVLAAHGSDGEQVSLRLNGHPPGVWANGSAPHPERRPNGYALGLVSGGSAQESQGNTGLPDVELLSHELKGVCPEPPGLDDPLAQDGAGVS
Description: (§1) Binding of the indicated compounds to A2A adenosine receptor (A2AR) and an adenosine transporter (ENT1) was characterized using standard binding protocols.
(§2) Radioligand binding assays. Radioligand binding assays were performed by MDS Pharma Services Taiwan (Taipei, Taiwan) using standard binding protocols. For A2AR binding assays, membrane proteins collected from HEK293 cells overexpressing human A2AR were incubated in the reaction buffer [50 mM Tris-HCl (pH 7.4), 10 mM MgCl2, 1 mM EDTA, and 2 U/mL adenosine deaminase] containing ^3H-CGS21680 (50 nM) for 90 min at 25° C. Nonspecific binding was assessed in the presence of 50 μM adenosine-5′-N-ethylcarboxamide. […] Binding assays for adenosine transporters were conducted as described earlier. Membrane fractions collected from the cerebral cortex of Duncan Hartley-derived guinea pigs were incubated with ^3H-labeled 6-[(4-nitrobenzyl)thio]-9-β-D-ribofuranosylpurine (NBTI, 0.5 nM) for 30 min at 25° C. in the incubation buffer containing 50 mM Tris-HCl (pH 7.4). […] Reactions were terminated by filtration over GF/B glass fibers and washing with the reaction buffer.

[3] = target: T1, adenosine transporter (ENT1) (Cavia porcellus, UniProt H0V4R7); test: Adenosine transporter (ENT1) radioligand binding assay (3H-NBTI)
T1 sequence (H0V4R7 1-461): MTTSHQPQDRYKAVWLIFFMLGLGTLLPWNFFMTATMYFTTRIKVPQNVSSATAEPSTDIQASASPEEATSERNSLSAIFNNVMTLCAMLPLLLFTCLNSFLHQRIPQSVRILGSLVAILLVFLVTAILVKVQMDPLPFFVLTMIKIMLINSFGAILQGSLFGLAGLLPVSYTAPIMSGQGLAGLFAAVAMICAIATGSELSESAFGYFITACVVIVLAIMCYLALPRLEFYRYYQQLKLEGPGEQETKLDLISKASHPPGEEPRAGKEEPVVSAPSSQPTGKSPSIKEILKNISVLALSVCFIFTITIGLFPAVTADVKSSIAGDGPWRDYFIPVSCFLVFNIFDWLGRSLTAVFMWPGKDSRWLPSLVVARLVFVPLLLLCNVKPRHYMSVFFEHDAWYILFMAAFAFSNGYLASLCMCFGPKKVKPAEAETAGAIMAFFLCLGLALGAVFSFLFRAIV
Description: as §1, §2

[4] = Oral bioavailability / pharmacokinetic study in ICR mice; format: in vivo
Description: To measure oral bioavailability of a test compound, blood samples were collected from male ICR mice (6 weeks old; 20-25 g) after oral (10 mg/kg) or intravenous (1 mg/kg) administrations of the test compound. The blood samples collected at the indicated periods were extracted with methanol containing 0.1% formic acid, and then 10 μL of each extracted sample were injected to UPLC-MSMS for quantitation.
Pharmacokinetic Study. The compound was administered as aqueous solutions in normal saline. Male ICR mice were purchased from BioLASCO Taiwan Co., Ltd. To measure oral bioavailability of test compounds (T1-11 and JMF3464), blood samples were collected from male ICR mice (6 weeks old; […]) after oral (10 mg/kg) or intravenous (1 mg/kg) administrations of test compounds. For T1-11, blood samples were collected at 2, 10, 30, 60, 120, 360 minutes after intravenous administration and at 15, 30, 45, 60, 120, 360 minutes after oral administration. For JMF3464, the blood samples were collected at 2, 10, 30, 60, 120, 240, 360, 480 minutes after intravenous administration and at 15, 30, 60, 90, 120, 240, 360, 480 minutes after oral administration. The blood samples were extracted by methanol with 0.1% formic acid, and then 10 μL of the extracted samples were injected to UPLC-MSMS to for quantitation.
The pharmacokinetic parameters were obtained using a pharmacokinetic program WinNonlin, fitting data to a noncompartmental model. […] The total plasma clearance (CL) was calculated as dose/AUCi.v.. The oral bioavailability (F) of the test compound by oral administration was calculated from the AUC0-∞ of the oral dose divided by the AUC0-∞ of the i.v. dose.

[5] = test system: R6/2 mice; test: Transgenic mouse model (R6/2) of Huntington's disease: rotarod and lifespan; format: in vivo
Description: FIGS. 3A-B show the effect of JMF3464 on motor deficits and lifespan. […] Rotarod performance (A) and lifespan (B) of these mice were assessed. * p<0.05. *** p<0.005.
As the A2AR and ENT1 are located in the striatum and have been implicated in striatal function, we hypothesized that chronic treatment with JMF3464 would modulate the progression of HD. We tested the effect of JMF3464 in a transgenic mouse model (R6/2) of HD in which A2AR agonists have beneficial effects.
Animals and drug administration. Male R6/2 mice (Mangiarini et al., 1996 Cell. 87:493-506) and littermate controls were originally obtained from Jackson Laboratories (Bar Harbor, Me., USA), and mated to female control mice (B6CBAFI/J). Offspring were identified by a polymerase chain reaction (PCR) genotyping technique of genomic DNA extracted from tail tissues using primers located in the transgene (5′-[…]-3′; SEQ ID NO: 1, and 5′-GGCTGAGGAAGCTGAGGAG-3′; SEQ ID NO: 2) to ensure that the number of CAG repeats remained approximately 150. […] Body weights of mice were recorded once daily. […]
Rotarod performance. Motor coordination was assessed using a rotarod apparatus (UGO BASILE, Comerio, Italy) at a constant speed (12 rpm) over a period of 2 min (Carter et al., 1999 J Neurosci. 19:3248-3257). […] Latency to fall was recorded automatically. […]

[6] = test system: NSC34 cells; test: TDP-43 mislocalization caused by AICAR (AMPK activation), immunostaining; format: cell-based; settings: 30 μM, 1 h pretreatment then AICAR 1 mM for 24 hrs
Description: Cells were pretreated with JMF3464 (30 μM) for one hour, and then treated with AICAR (1 mM, Al) in the presence of JMF3464 for additional 24 hrs. TDP-43 (red) localization was analysed by immunostaining. The locations of nuclei were marked by Hochest (blue).
Cell culture and transfection. The motor neuron cell line (NSC34) was a generous gift from Dr. Neil Cashman (Brain Research Centre, The University of British Columbia, Canada), and cultured in a high-glucose Dulbecco's modified Eagle's medium (DMEM) containing 10% fetal calf serum (FCS), 2 mM L-glutamine, and 1% penicillin/streptomycin (Invitrogen GibcoBRL, Carlsbad, Calif., USA) at 37° C. under 5% CO2.

[7] = test system: mice treated with intermittent cold stress; test: Intermittent cold stress model of fibromyalgia; format: in vivo
Description: FIGS. 10A-C show the analgesic effect of JMF3464 on a mouse model of fibromyalgia. […] Open arrows indicate the time mice received acid injection. Black arrows indicate the time mice received T1-11 (p.o.). […] The analgesic effect of JMF3464 is dose-dependent. The effective dose started from 100 μg/kg (i.p.).
Intermittent cold stress model. The fibromyalgia model was developed by Ueda's group, in which mice were treated with intermittent cold stress for 2 days (Nishiyori and Ueda, 2008 Mol Pain. 4:52). Mice treated with intermittent cold stress developed long-lasting (>2 weeks) mechanical and thermal hyperalgesia. Analgesic effects of JMF3464 (i.p. or p.o.) were tested in these mice 5 days after intermittent cold stress. Mechanical hyperalgesia was assayed by testing the withdrawal response of mouse hindpaws to 0.2-mN von Frey filament stimulation.

[8] = test system: SCA3 transgenic mice expressing ataxin-3-Q79; test: SCA3 transgenic mice: rotarod test and NeuN staining of pontine nuclei; settings: 4-month-old SCA3 transgenic mice
Description: (A) SCA3 transgenic mice were given drinking water containing vehicle (0.2% DMSO) or T1-11 (0.1 mg/ml) beginning at 4 weeks-old.
Behavioral test. Balance and coordination functions of mice were determined by performing rotarod test. Mice were placed on the moving drum of a rotarod apparatus (Accelerating Model, Ugo Basile Biological Research Apparatus), which was then accelerated until mouse fell from the drum onto a plate to stop the timer. Latency to fall was measured in four daily trials over the course of 4 days.
Immunohistochemical staining. Wild-type or SCA3 transgenic mice were anesthetized and perfused transcardially with 4% paraformaldehyde in PBS. Brain was equilibrated in Tissue-Tek embedding medium and frozen in liquid nitrogen. Coronal sections (20 μm) prepared by cryostat sectioning were permeabilized in 0.1% Triton X-100, and incubated at 4° C. for 48 hours with diluted anti-NeuN monoclonal antiserum (Chemicon). Subsequently, sections were washed and incubated with biotinylated horse anti-mouse IgG followed by incubation with avidin-biotin-horseradish peroxidase complex. The sections were then washed and developed in a diaminobenzidine solution. NeuN-positive neurons were visualized and counted by a Leica DM2500 microscope equipped with a Retiga-2000R CCD camera (QImaging) and a 3-axis computer-controlled MAC 600 motorized stage (Ludl Electronics) with the aid of StereoInvestigator software (MBF Bioscience). Each analysis included the processing of 15 brain sections per mouse.

[9] = test system: TDP-43 transgenic mice; test: TDP-43 transgenic mice (ALS): rotarod and grip strength; format: in vivo
[10] = 3.7, 1.25, 0.5 and 0.1 mg/kg/day, subcutaneous osmotic pump, vs control mice

What does the source list for `OC[C@H]1O[C@@H](n2cnc3c(NCc4ccc(Cl)s4)ncnc32)[C@H](O)[C@@H]1O` [JMF3818, N^6-[(5-Chlorothien-2-yl)methyl]adenosine]?
apoptosis of PC12 cells caused by serum withdrawal [1]: inhibited the apoptosis of PC12 cells caused by serum withdrawal; inhibition at 10 µM ([2]; read-out: inhibition of A2A receptor): 54%; inhibition at 10 µM ([3]; read-out: inhibition of adenosine transporter (ENT1)): 96%

With `OC[C@H]1O[C@@H](n2cnc3c(NCc4ccc(Br)s4)ncnc32)[C@H](O)[C@@H]1O` [JMF3464, N^6-[(5-bromothien-2-yl)methyl]adenosine] as the compound, how does the “oral absorption relative to T1-11” value ([4]; JMF3464 vs T1-11) read?
The value was “more than 6 fold”.

What about the bioavailability ([4]; male, mouse, plasma, oral 10 mg/kg vs intravenous 1 mg/kg) of the same compound?
The bioavailability was 17.4%.

What about the “motor coordination assessed by rotarod performance” value ([5]; R6/2 mice from 7 weeks old, 0.11 mg/kg/day, subcutaneous osmotic minipump, 6 weeks) of the same compound?
The value was “counteracted the progressive deterioration in motor coordination”.

What about the lifespan ([5]; R6/2 mice, sustained (long term) treatment) of the same compound?
Its lifespan is “improved”.

What about the TDP-43 mislocalization [6] of the same compound?
Its TDP-43 mislocalization is “reduced TDP-43 mislocalization; also recorded: normalized TDP-43 mislocalization”.

And the “effective dose (start)” value ([7]; i.p.)?
Its value is no less than 0.1 mg/kg.

And the analgesic effect ([7]; i.p., dose-dependent, von Frey mechanical hyperalgesia)?
Its analgesic effect is “showed an analgesic effect”.

What about the “analgesic effect, oral administration” value ([7]; p.o. 1 mg/kg) of the same compound?
Its value is “showed an analgesic effect”.

What about the Ki [2] of the same compound?
Its Ki is 1.7 µM.

And the Ki [3]?
Its Ki is 0.05 µM.

What about the “rotarod performance / ataxia” value ([8]; daily 0.3 mg per day) of the same compound?
Its value is “greatly improved the rotarod performance; also recorded: alleviated the ataxia”.

And the “pontine neuronal death (NeuN staining)” value ([8]; daily oral 0.3 mg per day)?
Its value is “significantly ameliorated neuronal death in the pontine nuclei; also recorded: alleviated”.

With `OC[C@H]1O[C@@H](n2cnc3c(NCCc4c[nH]c5ccccc45)ncnc32)[C@H](O)[C@@H]1O` [JMF1907, N^6-[2-(indol-3-yl)ethyl]adenosine] as the compound, how does the grip strength [9, 10] read?
Its grip strength is “statistical significance was reached at all points for all tested doses; also recorded: performed significantly better”.

What about the rotarod performance [9, 10] of the same compound?
Its rotarod performance is “statistical significance was reached at all points for 1.5 & 0.5 mg/kg, from 12-21 wk for 0.1 mg/kg, and 10-12 wk for 3.7 mg/kg; also recorded: performed significantly better”.

What about the “dose showing the greatest benefit” value ([9]; rotarod and grip strength) of the same compound?
The value was 1.25 mg/kg.

What about the Ki [2] of the same compound?
Its Ki is 4.39 µM.

What about the Ki [3] of the same compound?
Its Ki is 3.47 µM.

And the “pontine neuronal death (NeuN staining)” value ([8]; daily oral 1 mg per day)?
The value was “significantly prevented neuronal death in the pontine nuclei; also recorded: significantly alleviated pontine neuronal death”.

What about the rotarod performance ([8]; daily oral 1 mg per day) of the same compound?
Its rotarod performance is “significantly improved rotarod performance”.
